Results reported in patent publication US11414424B2, “Cardiac sarcomere inhibitors” (Cytokinetics, Inc., priority 2018, dated 2022).

Each compound was assayed on bovine cardiac myofibrils (assay: Myofibril assay: PK/LDH-coupled steady-state ATPase activity of skinned bovine cardiac myofibrils). Conditions: Ca2+ activating to 75% of maximal rate.
Format: biochemical
Method in brief: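 Steady-state ATPase of detergent-skinned bovine left-ventricular myofibrils (1 mg/mL), PK/LDH-coupled NADH read at 340 nm, in PIPES/MgCl2 buffer pH 6.8 with 50 μM ATP, 0.6 mM EGTA and CaCl2 set for 50% or 75% activation. Inhibition of activity measured.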

| CDMF75 IC15 [µM] | Compound |
| --- | --- |
| 2.3 | N#Cc1ccc(N2CC(=O)N(Cc3ccc(C(F)(F)F)cc3)C3(CN(C(=O)NC4CC4)C3)C2=O)cc1F [Compound 199, 8-(4-cyano-3-fluorophenyl)-N-cyclopropyl-6,9-dioxo-5-(4-(trifluoromethyl)benzyl)-2,5,8-triazaspiro[3.5]nonane-2-carboxamide] |
| 0.9 | Cn1cc(NC(=O)N2CC3(C2)C(=O)N(c2ccc(C#N)c(F)c2)CC(=O)N3Cc2ccc(C(F)(F)F)cc2)cn1 [Compound 200, 8-(4-cyano-3-fluorophenyl)-N-(1-methyl-1H-pyrazol-4-yl)-6,9-dioxo-5-(4-(trifluoromethyl)benzyl)-2,5,8-triazaspiro[3.5]nonane-2-carboxamide] |
| 0.6 | N#Cc1ccc(N2CC(=O)N(Cc3ccc(C(F)(F)F)cc3)C3(CN(C(=O)C4CC4)C3)C2=O)c(F)c1 [Compound 203, 4-(2-(cyclopropanecarbonyl)-6,9-dioxo-5-(4-(trifluoromethyl)benzyl)-2,5,8-triazaspiro[3.5]nonan-8-yl)-3-fluorobenzonitrile] |
| 0.2 | N#Cc1ccc(N2CC(=O)N(Cc3ccc(C(F)(F)F)cc3)C3(CN(C(N)=O)C3)C2=O)c(F)c1 [Compound 204, 8-(4-cyano-2-fluorophenyl)-6,9-dioxo-5-(4-(trifluoromethyl)benzyl)-2,5,8-triazaspiro[3.5]nonane-2-carboxamide] |
| 0.7 | CC(=O)N1CCC2(C1)C(=O)N(c1ccc(C#N)cc1F)CC(=O)N2Cc1ccc(Cl)cc1 (centres unmarked) [Compound 205, 4-(2-acetyl-6-(4-chlorobenzyl)-7,10-dioxo-2,6,9-triazaspiro[4.5]decan-9-yl)-3-fluorobenzonitrile] |
| 0.5 | CC(=O)N1CC[C@]2(C1)C(=O)N(c1ccc(C#N)cc1F)CC(=O)N2Cc1ccc(C(F)(F)F)cc1 [Compound 209, (S)-4-(2-acetyl-7,10-dioxo-6-(4-(trifluoromethyl)-benzyl)-2,6,9-triazaspiro-[4.5]decan-9-yl)-3-fluorobenzonitrile] |
| 0.4 | COC(=O)N1CC[C@]2(C1)C(=O)N(c1ccc(C#N)cc1F)CC(=O)N2Cc1ccc(Cl)cc1 [Compound 211, methyl (S)-6-(4-chlorobenzyl)-9-(4-cyano-2-fluorophenyl)-7,10-dioxo-2,6,9-triazaspiro-[4.5]decane-2-carboxylate] |
| 0.5 | CCC(=O)N1CC[C@]2(C1)C(=O)N(c1ccc(C#N)cc1F)CC(=O)N2Cc1ccc(Cl)cc1 [Compound 214, (S)-4-(6-(4-chlorobenzyl)-7,10-dioxo-2-propionyl-2,6,9-triazaspiro[4.5]decan-9-yl)-3-fluorobenzonitrile] |
| 1.3 | N#Cc1ccc(N2CC(=O)N(Cc3ccc(C(F)(F)F)cc3)[C@]3(CCN(C(=O)C4COC4)C3)C2=O)c(F)c1 [Compound 215, (S)-3-fluoro-4-(2-(oxetane-3-carbonyl)-7,10-dioxo-6-(4-(trifluoromethyl)benzyl)-2,6,9-triazaspiro[4.5]decan-9-yl)benzonitrile] |
| 0.3 | COC(=O)N1CC[C@]2(C1)C(=O)N(c1ccc(C#N)cc1F)CC(=O)N2Cc1ccc(C(F)(F)F)cc1 [Compound 216, methyl (S)-9-(4-cyano-2-fluorophenyl)-7,10-dioxo-6-(4-(trifluoromethyl)benzyl)-2,6,9-triazaspiro[4.5]decane-2-carboxylate] |
| 0.9 | N#Cc1ccc(N2CC(=O)N(Cc3ccc(C(F)(F)F)cc3)[C@]3(CCN(C(=O)C4CCC4)C3)C2=O)c(F)c1 [Compound 217, (S)-4-(2-(cyclobutane-carbonyl)-7,10-dioxo-6-(4-(trifluoromethyl)benzyl)-2,6,9-triazaspiro[4.5]decan-9-yl)-3-fluorobenzonitrile] |
| 0.4 | CCC(=O)N1CC[C@]2(C1)C(=O)N(c1ccc(C#N)cc1F)CC(=O)N2Cc1ccc(C(F)(F)F)cc1 [Compound 218, (S)-4-(7,10-dioxo-2-propionyl-6-(4-(trifluoromethyl)benzyl)-2,6,9-triazaspiro[4.5]decan-9-yl)-3-fluorobenzonitrile] |
| 0.4 | N#Cc1ccc(N2CC(=O)N(Cc3ccc(C(F)(F)F)cc3)[C@]3(CCN(C(=O)C4CC4)C3)C2=O)c(F)c1 [Compound 219, (S)-4-(2-(cyclopropane-carbonyl)-7,10-dioxo-6-(4-(trifluoromethyl)benzyl)-2,6,9-triazaspiro[4.5]decan-9-yl)-3-fluorobenzonitrile] |
| 0.8 | N#Cc1ccc(N2CC(=O)N(Cc3ccc(Cl)cc3)[C@]3(CCN(C=O)C3)C2=O)c(F)c1 [Compound 220, (S)-4-(6-(4-chlorobenzyl)-2-formyl-7,10-dioxo-2,6,9-triazaspiro[4.5]decan-9-yl)-3-fluorobenzonitrile] |
| 4.1 | CC(C)C(=O)N1CC[C@]2(C1)C(=O)N(c1ccc(C#N)cc1F)CC(=O)N2Cc1ccc(Cl)cc1 [Compound 221, (S)-4-(6-(4-chlorobenzyl)-2-isobutyryl-7,10-dioxo-2,6,9-triazaspiro[4.5]decan-9-yl)-3-fluorobenzonitrile] |
| 2.3 | CC(C)C(=O)N1CC[C@]2(C1)C(=O)N(c1ccc(C#N)cc1F)CC(=O)N2Cc1ccc(C(F)(F)F)cc1 [Compound 223, (S)-3-fluoro-4-(2-isobutyryl-7,10-dioxo-6-(4-(trifluoromethyl)benzyl)-2,6,9-triazaspiro[4.5]decan-9-yl)benzonitrile] |

| CDMF75 IC15 [µM] | Compound |
| --- | --- |
| 12.1 | CC(=O)N1CC[C@]2(C1)C(=O)N(c1ccc(OC(F)F)cc1)CC(=O)N2Cc1ccc(Cl)cc1 [Compound 224, (S)-2-acetyl-6-(4-chloro-benzyl)-9-(4-(difluoro-methoxy)phenyl)-2,6,9-triazaspiro[4.5]decane-7,10-dione] |
| 29.6 | COc1ccc(N2CC(=O)N(Cc3ccc(Cl)cc3)[C@]3(CCN(C(C)=O)C3)C2=O)nc1 [Compound 225, (S)-2-acetyl-6-(4-chloro-benzyl)-9-(5-methoxy-pyridin-2-yl)-2,6,9-triazaspiro[4.5]decane-7,10-dione] |
| 0.7 | N#Cc1ccc(N2CC(=O)N(Cc3ccc(Cl)cc3)[C@]3(C[C@@H](C(N)=O)C3)C2=O)c(F)c1 [Compound 266, (2s,4s)-5-(4-chlorobenzyl)-8-(4-cyano-2-fluorophenyl)-6,9-dioxo-5,8-diazaspiro-[3.5]nonane-2-carboxamide] |
| 1.2 | CC1(CO)C(=O)N(c2ccc(C#N)cc2F)CC(=O)N1Cc1ccc(C(F)(F)F)cc1 (centres unmarked) [Compound 269, 3-fluoro-4-(3-(hydroxy-methyl)-3-methyl-2,5-dioxo-4-(4-(trifluoro-methyl)benzyl)piperazin-1-yl)benzonitrile] |
| 1.9 | CC1(CO)C(=O)N(c2ccc(Cl)cc2F)CC(=O)N1Cc1ccc(C(F)(F)F)cc1 (centres unmarked) [Compound 270, 1-(4-chloro-2-fluorophenyl)-3-(hydroxymethyl)-3-methyl-4-(4-(trifluoro-methyl)benzyl)piperazine-2,5-dione] |
| 0.6 | O=C1CN(c2ccc(Cl)cc2F)C(=O)C2(CC2)N1Cc1ccc(C(F)(F)F)cc1 [Compound 271, 7-(4-chloro-2-fluorophenyl)-4-(4-(trifluoromethyl)-benzyl)-4,7-diazaspiro-[2.5]octane-5,8-dione] |
| 0.5 | O=C1CN(c2ccc(Cl)cc2F)C(=O)C2(CCC2)N1Cc1ccc(C(F)(F)F)cc1 [Compound 272, 8-(4-chloro-2-fluorophenyl)-5-(4-(trifluoromethyl)-benzyl)-5,8-diazaspiro-[3.5]nonane-6,9-dione] |
| 1.8 | CC1(C)C(=O)N(c2ccc(Cl)cc2F)CC(=O)N1Cc1ccc(C(F)(F)F)cc1 [Compound 273, 1-(4-chloro-2-fluorophenyl)-3,3-dimethyl-4-(4-(trifluoromethyl)benzyl)-piperazine-2,5-dione] |
| 1.0 | O=C1CN(c2ccc(Cl)cc2F)C(=O)C2(COC2)N1Cc1ccc(C(F)(F)F)cc1 [Compound 274, 8-(4-chloro-2-fluorophenyl)-5-(4-(trifluoromethyl)-benzyl)-2-oxa-5,8-diazaspiro[3.5]nonane-6,9-dione] |
| 6.0 | C[C@@H]1C(=O)N(c2ccc(Cl)cc2F)CC(=O)N1Cc1ccc(C(F)(F)F)cc1 [Compound 275, (R)-1-(4-chloro-2-fluoro-phenyl)-3-methyl-4-(4-(trifluoromethyl)benzyl)-piperazine-2,5-dione] |
| 3.0 | C[C@H]1C(=O)N(c2ccc(Cl)cc2F)CC(=O)N1Cc1ccc(C(F)(F)F)cc1 [Compound 276, (S)-1-(4-chloro-2-fluoro-phenyl)-3-methyl-4-(4-(trifluoromethyl)benzyl)-piperazine-2,5-dione] |
| 32.7 | O=C1CN(c2ccc(Cl)cc2F)C(=O)CN1Cc1ccc(C(F)(F)F)cc1 [Compound 277, 1-(4-chloro-2-fluorophenyl)-4-(4-(trifluoromethyl)-benzyl)piperazine-2,5-dione] |
| 1.2 | CC1(C)C(=O)N(c2ccc(C#N)cc2F)CC(=O)N1Cc1ccc(C(F)(F)F)cc1 [Compound 279, 4-(3,3-dimethyl-2,5-dioxo-4-(4-(trifluoromethyl)-benzyl)piperazin-1-yl)-3-fluorobenzonitrile] |
| 0.9 | N#Cc1ccc(N2CC(=O)N(Cc3ccc(C(F)(F)F)cc3)C3(COC3)C2=O)c(F)c1 [Compound 280, 4-(6,9-dioxo-5-(4-(trifluoromethyl)benzyl)-2-oxa-5,8-diazaspiro[3.5]-nonan-8-yl)-3-fluorobenzonitrile] |
| 4.3 | O=C1C(C2COC2)N(Cc2ccc(C(F)(F)F)cc2)C(=O)CN1c1ccc(Cl)cc1F (centres unmarked) [Compound 281, 1-(4-chloro-2-fluorophenyl)-3-(oxetan-3-yl)-4-(4-(trifluoromethyl)benzyl)-piperazine-2,5-dione] |

| Compound | CDMF75 IC15 [µM] |
| --- | --- |
| CN(C)C(=O)N1CC2(C1)C(=O)N(c1ccc(C#N)c(F)c1)CC(=O)N2Cc1ccc(C(F)(F)F)cc1 [Compound 201, 8-(4-cyano-3-fluorophenyl)-N,N-dimethyl-6,9-dioxo-5-(4-(trifluoromethyl)benzyl)-2,5,8-triazaspiro[3.5]nonane-2-carboxamide] | 5.1 |
